What was measured:
Fn14 = target: T1, Fn14 (Homo sapiens, UniProt Q9NP84); test: Surface Plasmon Resonance assay, Fn14-Fc sensor surface; assay type: binding; settings: Fn14 surface, SPR, 25 degrees Celsius
T1 construct: the human Fc fragment-tagged Fn14 extracellular domain (R&D Systems) was captured
T1 sequence (Q9NP84 28-80 limits assumed): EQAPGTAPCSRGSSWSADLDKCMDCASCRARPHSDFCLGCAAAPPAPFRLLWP
Procedure: Surface Plasmon Resonance (SPR) Assay. The binding affinity of at least one of the compounds (e.g., L524-0366) to TWEAK and Fn14-Fx was determined using a BIAcore T100 optical biosensor (GE Healthcare) at 25 degrees Celsius at the Arizona Proteomics Consortium. Recombinant human TWEAK (20 μg/mL in 10 mM HEPES pH 7.4, 150 mM NaCl, 3 mM EDTA, 0.05% Tween 20) or recombinant human Fn14-Fc (20 μg/mL in 10 mM NaOAc pH 4.0) were covalently coupled to separate flow cells on a BIAcore CM5 sensor chip using standard amine coupling chemistry as per manufacturer's protocol. Final immobilization levels were 6000 Response Units (RU) for TWEAK and 13,000 RU for FN14-Fc. The first flow path of the chip was treated with the same coupling and blocking reagents without protein and was used as a reference for each binding cycle. Functionality of the TWEAK and the Fn14-Fc sensor surfaces were verified by injecting Fn14-Fc and TWEAK over them respectively. Serial dilutions of L524-0366 or cycloheximide (control) from 0 to 50 μM were made in running buffer (10 mM HEPES pH 7.4, 150 mM NaCl, 3 mM EDTA, 1% DMSO). […] Equilibrium dissociation constants for the small molecules were calculated by fitting the double reference subtracted data to Req=((CRmax)/(KD+C))+RI, where RI is the bulk refractive index contribution.

TWEAK-Fn14 signaling = test: Cell based NF-κB luciferase reporter assay, Fn14-NF-κB-Luc cells stimulated with TWEAK; set-up: species or system human
Procedure: NF-κB luciferase reporter Assay. The capacity of sTWEAK or sTWEAK variants to activate Fn14 signaling was evaluated using engineered reporter cell lines that express luciferase upon NF-κB activation. Two reporter cell lines were utilized for these experiments. HEK293 NF-κB luciferase (courtesy of Dr. Jeff Winkles) were generated by transfecting HEK293 cells with a reporter plasmid containing 5 copies of a consensus NF-κB binding site upstream of a minimal CMV promoter driving expression of firefly luciferase. The second cell line, designated HEK293 NF-κB luciferase Fn14 FL, was generated by stably transfecting the HEK293 NF-κB luciferase cell line with full length Fn14. To assay the binding of sTWEAK or sTWEAK variants to Fn14, reporter cells were seeded in tissue culture treated white 96-well plates at 1×10^4 cells/well in 80 μL Opti-MEM media (Invitrogen) and incubated for 48 hr at 37° C. After 48 hr incubation, 20 μL of 5× purified recombinant TWEAK (Peprotech Inc.; 150 ng/mL) in 1 mg/mL BSA in PBS was added to each well and incubated for 5 hr at 37° C. as positive control. Similarly, equivalent amounts of sTWEAK or sTWEAK variant prepared via IVTTas determined using ELISA assay described above was added in 20 μl. IVTT solution lacking a cDNA template in 1 mg/mL BSA in PBS and 1 mg/mL BSA in PBS alone was used as an additional control. At the end of 5 hr incubation, the luminescent signal was determined using Bright-Glo assay kit (Promega, Madison, Wis.) according to the manufacturer's instructions.
Briefly, Fn14-NF-κB-Luc reporter cells, (Fn14 overexpressing HEK293 NF-κB luciferase cells), were seeded in tissue culture treated white 96-well plates at 1×10^4 cells/well in 80 μL Opti-MEM media (Invitrogen) and incubated for 48 hr at 37° C. […] Luminescent signal was determined using Bright-Glo assay kit (Promega, Madison, Wis.) according to the manufacturer's instructions and normalized to negative control. […] IC50 values for dose response curve were determined using the curve fitting functionality of GraphPad Prism software.

T98G glioma cells = test: Cytotoxicity assay, CellTiter-Glo; assay type: cell-based, human; settings: up to 50 μM, 72 hr
Procedure: Cytotoxicity Assay. Cytotoxic effects of drugs on glioma cells were analyzed by quantifying the ATP, an indicator of metabolically active cells. Briefly, glioma cells were seeded in tissue culture treated white 96-well plates at 3×10^3 cells/well in 80 μL Opti-MEM media (Invitrogen) and incubated for 24 hr at 37° C. After 24 hr incubation, 20 μL of 5× drug solution at required concentration in Opti-MEM was added to each well and incubated for 72 hr at 37° C. Opti-MEM/DMSO mixture without drug was used as negative control and 20 μM staurosporine was used as positive control. At the end of 72 hr incubation, the number of viable cells were quantified by using CellTiter-Glo assay kit (Promega, Madison, Wis.) according to the manufacturer's instructions. Luminescence signal measured was normalized to negative control to determine % cell viability.

Kd (Fn14): 7.12 µM
IC50 (TWEAK-Fn14 signaling; Homo sapiens, Fn14-NF-κB-Luc cells stimulated with TWEAK, 0.75 μM to 250 μM, read-out: IC50, TWEAK-Fn14 stimulated luciferase induction): 7.8 µM
Compound: O=C(c1cn(-c2cccc(Cl)c2)nn1)N1CCSCC1 [Compound L524-0366]
inhibition of TWEAK-induced NF-κB driven luciferase activity (TWEAK-Fn14 signaling; Fn14-NF-κB-Luc cells, 20 μM): significant inhibition
fold higher inhibitory activity against TWEAK-Fn14 signaling (TWEAK-Fn14 signaling; TWEAK/Fn14-NF-κB-Luc versus TNFα/NF-κB-Luc IC50): approximately 5 fold
cytotoxicity (T98G glioma cells): did not demonstrate any cytotoxicity

From patent US9238034B2, “FN14 antagonists and therapeutic uses thereof” (THE TRANSLATIONAL GENOMICS RESEARCH INSTITUTE, priority 2013, dated 2016)
